According to BindingDB's records for doi:10.1046/j.1471-4159.1997.68062263.x (Dynamique Des Systemes Neuroendocriniens, 1997):
pKi: −log10 of the molar value. Numbered stars: 1 amine (or outer) side, 2 acyl side, 3 side chain; on linkers, the order of the positions; unused ones are H or OH. Bridge positions count the residues as written; N and C are the ends. Square brackets hold non-standard residues; d marks the D form. Peptide text beside a SMILES is read from it. ξ: configuration not given here. Phe(4-CH2NHiPr) = CC(C)NCc1ccc(C[C@H](N)C(=O)O)cc1; X1 = CC(C)NCc1ccc(C[C@@H](N[*:1])C(=O)[*:2])cc1; d1Nal = N[C@H](Cc1cccc2ccccc12)C(=O)O; Thr(3ξ) = CC(O)[C@H](N)C(=O)O; ξF = NC(Cc1ccccc1)C(=O)O; ξK = NCCCCC(N)C(=O)O; ξT = CC(O)C(N)C(=O)O

What was measured:
[1] = target: T1, Somatostatin receptor type 5 (Rattus norvegicus, UniProt P30938)
T1 sequence (P30938 whole entry): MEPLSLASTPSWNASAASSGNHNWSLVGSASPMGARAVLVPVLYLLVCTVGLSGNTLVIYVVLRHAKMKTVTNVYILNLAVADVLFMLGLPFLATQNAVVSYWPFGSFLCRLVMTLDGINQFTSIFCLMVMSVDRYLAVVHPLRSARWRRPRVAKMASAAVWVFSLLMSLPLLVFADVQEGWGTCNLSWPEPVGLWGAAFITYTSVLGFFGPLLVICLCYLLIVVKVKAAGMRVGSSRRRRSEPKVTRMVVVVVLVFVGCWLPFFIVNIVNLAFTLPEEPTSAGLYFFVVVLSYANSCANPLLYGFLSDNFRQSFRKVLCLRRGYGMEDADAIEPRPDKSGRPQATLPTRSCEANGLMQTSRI

[2] = target: Somatostatin receptor type 2 (Rattus norvegicus, UniProt P30680)
[3] = target: Somatostatin receptor type 4 (Rattus norvegicus, UniProt P30937)
[4] = target: Somatostatin receptor type 3 (Rattus norvegicus, UniProt P30936)
[5] = target: Somatostatin receptor type 1 (Rattus norvegicus, UniProt P28646)
Somatostatin receptor type 1, sequence (P28646 whole entry): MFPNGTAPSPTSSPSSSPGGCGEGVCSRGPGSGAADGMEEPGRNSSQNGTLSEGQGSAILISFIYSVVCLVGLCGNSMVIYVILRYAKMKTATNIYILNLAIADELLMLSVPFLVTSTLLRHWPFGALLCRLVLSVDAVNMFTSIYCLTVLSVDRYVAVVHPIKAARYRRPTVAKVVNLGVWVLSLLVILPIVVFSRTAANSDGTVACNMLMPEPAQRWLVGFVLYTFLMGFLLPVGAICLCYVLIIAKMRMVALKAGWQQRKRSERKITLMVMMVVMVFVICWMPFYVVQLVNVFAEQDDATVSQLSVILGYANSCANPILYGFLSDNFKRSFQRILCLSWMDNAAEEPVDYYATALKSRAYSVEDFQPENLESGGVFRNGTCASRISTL

Somatostatin receptor type 3, sequence (P30936 whole entry): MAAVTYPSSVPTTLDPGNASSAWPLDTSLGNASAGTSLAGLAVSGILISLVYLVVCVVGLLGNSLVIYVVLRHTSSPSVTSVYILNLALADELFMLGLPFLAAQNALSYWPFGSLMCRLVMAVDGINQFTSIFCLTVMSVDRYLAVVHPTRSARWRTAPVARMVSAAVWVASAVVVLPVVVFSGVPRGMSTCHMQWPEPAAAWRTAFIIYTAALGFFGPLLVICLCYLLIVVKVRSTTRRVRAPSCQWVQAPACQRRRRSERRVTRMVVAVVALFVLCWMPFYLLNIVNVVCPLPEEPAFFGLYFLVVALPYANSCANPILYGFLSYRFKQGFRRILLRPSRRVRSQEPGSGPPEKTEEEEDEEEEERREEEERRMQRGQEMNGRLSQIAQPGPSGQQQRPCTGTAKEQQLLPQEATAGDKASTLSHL
Somatostatin receptor type 4, sequence (P30937 whole entry): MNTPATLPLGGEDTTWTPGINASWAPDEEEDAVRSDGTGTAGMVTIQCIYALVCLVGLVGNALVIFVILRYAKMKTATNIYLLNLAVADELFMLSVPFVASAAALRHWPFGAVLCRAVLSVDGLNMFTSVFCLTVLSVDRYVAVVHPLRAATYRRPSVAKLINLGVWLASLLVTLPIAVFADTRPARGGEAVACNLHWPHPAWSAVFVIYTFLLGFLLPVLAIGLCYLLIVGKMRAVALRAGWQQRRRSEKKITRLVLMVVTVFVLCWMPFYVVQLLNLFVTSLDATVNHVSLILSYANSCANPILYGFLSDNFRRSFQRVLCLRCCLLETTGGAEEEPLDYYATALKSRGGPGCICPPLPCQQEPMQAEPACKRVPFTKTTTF
Somatostatin receptor type 2, sequence (P30680 whole entry): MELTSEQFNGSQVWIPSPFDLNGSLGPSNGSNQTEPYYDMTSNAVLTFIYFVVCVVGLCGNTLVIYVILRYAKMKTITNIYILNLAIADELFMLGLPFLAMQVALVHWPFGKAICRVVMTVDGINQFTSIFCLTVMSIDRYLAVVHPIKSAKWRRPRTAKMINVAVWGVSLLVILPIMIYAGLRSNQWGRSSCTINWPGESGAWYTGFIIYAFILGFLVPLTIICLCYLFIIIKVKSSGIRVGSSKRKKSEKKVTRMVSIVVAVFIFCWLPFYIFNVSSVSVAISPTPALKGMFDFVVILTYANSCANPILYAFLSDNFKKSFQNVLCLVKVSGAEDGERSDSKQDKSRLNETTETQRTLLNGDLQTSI

| pKi [1] | pKi [2] | pKi [3] | pKi [4] | pKi [5] | SMILES |
| --- | --- | --- | --- | --- | --- |
|  | 6.00 | 6.33 | 6.24 | 7.34 | CC(C)NCc1ccc(C[C@@H]2NC(=O)[C@@H](Cc3c[nH]c4ccccc34)NC(=O)[C@H](Cc3ccccc3)NC(=O)[C@H](Cc3ccccc3)NC(=O)[C@H](CCCCN)NC(=O)[C@@H](N)CSSC[C@@H](C(=O)O)NC(=O)[C@H](CO)NC(=O)[C@H]([C@@H](C)O)NC(=O)[C@H](Cc3ccccc3)NC(=O)[C@H]([C@@H](C)O)NC2=O)cc1 [CH-275] (H-CKFF[dW][Phe(4-CH2NHiPr)]TFTSC-OH; disulfide 1-11) |
| 6.55 |  |  |  |  | CC(C)NCc1ccc(C[C@H]2NC(=O)[C@H](Cc3c[nH]c4ccccc34)NC(=O)C(Cc3ccccc3)NC(=O)C(Cc3ccccc3)NC(=O)C(CCCCN)NC(=O)[C@H](N)CSSC[C@H](C(=O)O)NC(=O)[C@@H](CO)NC(=O)[C@H](C(C)O)NC(=O)[C@@H](Cc3ccccc3)NC(=O)C(C(C)O)NC2=O)cc1 (stereo not given in full) [CH-275] (H-[dC][ξK][ξF][ξF]W[X1][ξT][dF][Thr(3ξ)][dS][dC]-OH; disulfide 1-11) |

Second part, the molecule before the results:

| SMILES | pKi [1] | pKi [2] | pKi [3] | pKi [4] | pKi [5] |
| --- | --- | --- | --- | --- | --- |
| C[C@H](N)C(=O)NCC(=O)N[C@@H]1CSSC[C@@H](C(=O)O)NC(=O)[C@H](CO)NC(=O)[C@@H]([C@@H](C)O)NC(=O)[C@H](Cc2ccccc2)NC(=O)[C@@H]([C@@H](C)O)NC(=O)[C@H](CCCCN)NC(=O)[C@@H](Cc2c[nH]c3ccccc23)NC(=O)[C@H](Cc2ccccc2)NC(=O)[C@@H](Cc2ccccc2)NC(=O)[C@H](CC(N)=O)NC(=O)[C@@H](CCCCN)NC1=O | 8.59 |  |  |  |  |
| CC(C)[C@H](NC(=O)[C@H](CCCCN)NC(=O)[C@@H](Cc1c[nH]c2ccccc12)NC(=O)[C@H](Cc1ccc(O)cc1)NC(=O)[C@H](Cc1ccccc1)NC(=O)[C@@H](N)Cc1ccccc1)C(=O)N[C@@H](Cc1ccccc1)C(=O)N[C@H](Cc1cccc2ccccc12)C(N)=O [BIM 23056] (H-FFY[dW]KVF[d1Nal]-NH2) | 7.49 |  |  |  |  |
| CC(C)[C@H](NC(=O)[C@H](CCCCN)NC(=O)[C@@H](Cc1c[nH]c2ccccc12)NC(=O)[C@H](Cc1ccc(O)cc1)NC(=O)[C@H](Cc1ccccc1)NC(=O)[C@H](N)Cc1ccccc1)C(=O)N[C@@H](Cc1ccccc1)C(=O)N[C@H](Cc1cccc2ccccc12)C(N)=O [BIM 23056] (H-[dF]FY[dW]KVF[d1Nal]-NH2) |  | 6.08 | 7.08 | 6.42 | 6.52 |
| C[C@@H](O)[C@H](NC(=O)[C@H](Cc1ccccc1)NC(=O)[C@@H](NC(=O)[C@H](CCCCN)NC(=O)[C@@H](Cc1c[nH]c2ccccc12)NC(=O)[C@H](Cc1ccccc1)NC(=O)[C@H](Cc1ccccc1)NC(=O)[C@H](N)Cc1ccccc1)[C@@H](C)O)C(N)=O [CAS_133073-82-2] (H-[dF]FF[dW]KTFT-NH2) | 8.09 | 6.79 | 8.08 | 8.34 |  |
